≈ marks a conversion by molar mass, not a printed value. Calls of active or inactive are those of the source. No cut-off for these calls is given here. Where a SMILES comes first, the peptide text is derived from it. [ ]: non-standard residue; d: D form. MeBmt = C/C=C/C[C@@H](C)[C@@H](O)[C@H](NC)C(=O)O; NMePhg = CN[C@H](C(=O)O)c1ccccc1; NMeT = CN[C@H](C(=O)O)[C@@H](C)O; NMeL = CN[C@@H](CC(C)C)C(=O)O; NMeV = CN[C@H](C(=O)O)C(C)C; dNMeA = CN[C@H](C)C(=O)O; Sar = CNCC(=O)O
How the values were obtained:
[1] = Inhibition of cyclophilin in Hepatitis C virus assessed as inhibition of viral replicon replication in presence of 10% HSA by qRT-PCR analysis; parameters: species or system Hepacivirus hominis
[2] = Oral bioavailability in rat; type: ADME, organism-based; conditions: in vivo
[3] = test system: Splenocyte; experiment: Immunosuppressive activity in mouse splenocytes assessed as inhibition of ConA- induced proliferation; type: functional, cell-based
[4] = Inhibition of cyclophilin in Hepatitis C virus assessed as inhibition of viral replicon replication by qRT-PCR analysis; parameters: species or system Hepacivirus hominis
[5] = Inhibition of cyclophilin in Hepatitis C virus assessed as inhibition of viral replicon replication in presence of 5% FBS by qRT-PCR analysis; parameters: species or system Hepacivirus hominis
[6] = Aqueous solubility of the compound at pH 6.8; type: physicochemical
[7] = AUC (0 to 24 hrs) in po dosed rat; type: ADME, organism-based; parameters: time < 24 hr, route oral; conditions: in vivo
[8] = test system: Hepatitis C virus; experiment: Antiviral activity against Hepatitis C virus genotype 1b infected in humanized liver SCID-Alb/uPA chimeric mouse assessed as reduction in serum HCV RNA level at 3.75 to 30 mg/kg, po bid administered via gavage for 14 days cotreated with peginterferon-alpha2a at 10 ug/kg, sc administered twice a week and measured after 7 days without compound administration post-last dose; type: functional, organism-based; conditions: Hepacivirus hominis, subtype 1b
[9] = test system: Hepatitis C virus; experiment: Antiviral activity against Hepatitis C virus genotype 1b infected in humanized liver SCID-Alb/uPA chimeric mouse assessed as reduction in serum HCV RNA level at 3.75 to 30 mg/kg, po bid administered via gavage for 14 days measured after 7 days without compound administration post-last dose; type: functional, organism-based; conditions: Hepacivirus hominis, subtype 1b

C/C=C/C[C@@H](C)[C@@H](O)[C@H]1C(=O)N[C@@H]([C@@H](C)O)C(=O)N(C)[C@H](C)C(=O)N(C)[C@@H]([C@@H](C)CC)C(=O)N[C@@H](CC(C)C)C(=O)N(C)[C@@H](CC(C)C)C(=O)N[C@@H](C)C(=O)N[C@H](C)C(=O)N(C)[C@@H](CC(C)C)C(=O)N[C@@H](CC(C)C)C(=O)N(C)[C@@H](C(C)C)C(=O)N1C
EC50 [1]: 0.05 µg/mL
bioavailability [2]: 49%
IC50 [3]: 1.1 µg/mL (≈ 0.892 µM)
EC50 [4]: 0.039 µg/mL (≈ 0.0316 µM)
EC50 [5]: 0.039 µg/mL
solubility [6]: < 0.1 µg/mL
AUC(0-t) at 24 h [7]: 13300 ng·h/mL

C/C=C/C[C@@H](C)[C@@H](O)[C@H]1C(=O)N[C@@H]([C@@H](C)O)C(=O)N(C)CC(=O)N(C)[C@@H](c2ccccc2)C(=O)N[C@@H](CC(C)C)C(=O)N(C)[C@@H](CC(C)C)C(=O)N[C@@H](C)C(=O)N[C@H](C)C(=O)N(C)[C@@H](CC(C)C)C(=O)N[C@@H](CC(C)C)C(=O)N(C)[C@@H](C(C)C)C(=O)N1C
IC50 [3]: 0.8 µg/mL (≈ 0.646 µM)
EC50 [4]: 0.12 µg/mL (≈ 0.0969 µM)

C/C=C/C[C@@H](C)[C@@H](O)[C@H]1C(=O)N[C@@H]([C@@H](C)O)C(=O)N(C)[C@H](C)C(=O)N(C)[C@@H]([C@@H](C)OO)C(=O)N[C@@H](CC(C)C)C(=O)N(C)[C@@H](CC(C)C)C(=O)N[C@@H](C)C(=O)N[C@H](C)C(=O)N(C)[C@@H](CC(C)C)C(=O)N[C@@H](CC(C)C)C(=O)N(C)[C@@H](C(C)C)C(=O)N1C
EC50 [1]: 0.086 µg/mL
bioavailability [2]: 32%
IC50 [3]: 1.9 µg/mL (≈ 1.54 µM)
EC50 [5]: 0.061 µg/mL
solubility [6]: > 122 µg/mL
AUC(0-t) at 24 h [7]: 5680 ng·h/mL

C/C=C/C[C@@H](C)[C@@H](O)[C@H]1C(=O)N[C@@H]([C@@H](C)O)C(=O)N(C)CC(=O)N(C)[C@@H](CC2CCCCC2)C(=O)N[C@@H](CC(C)C)C(=O)N(C)[C@@H](CC(C)C)C(=O)N[C@@H](C)C(=O)N[C@H](C)C(=O)N(C)[C@@H](CC(C)C)C(=O)N[C@@H](CC(C)C)C(=O)N(C)[C@@H](C(C)C)C(=O)N1C
IC50 [3]: 0.065 µg/mL (≈ 0.0516 µM)
EC50 [4]: 0.086 µg/mL (≈ 0.0683 µM)

C/C=C/C[C@@H](C)[C@@H](O)[C@H]1C(=O)N[C@@H]([C@@H](C)O)C(=O)N(C)[C@H](C)C(=O)N(C)[C@@H]([C@@H](C)OC)C(=O)N[C@@H](CC(C)C)C(=O)N(C)[C@@H](CC(C)C)C(=O)N[C@@H](C)C(=O)N[C@H](C)C(=O)N(C)[C@@H](CC(C)C)C(=O)N[C@@H](CC(C)C)C(=O)N(C)[C@@H](C(C)C)C(=O)N1C (cyclo(A[dA][NMeL]L[NMeV][MeBmt]T[dNMeA][NMeT](Me)L[NMeL]))
EC50 [1]: 0.061 µg/mL
Activity [8]: Active
bioavailability [2]: 36%
IC50 [3]: 0.97 µg/mL (≈ 0.786 µM)
EC50 [5]: 0.04 µg/mL
solubility [6]: 117 µg/mL (≈ 94.8 µM)
AUC(0-t) at 24 h [7]: 16100 ng·h/mL
Activity [9]: Active

C/C=C/C[C@@H](C)[C@@H](O)[C@H]1C(=O)N[C@@H]([C@@H](C)O)C(=O)N(C)CC(=O)N(C)[C@@H](CC(C)C)C(=O)N[C@@H](CC(C)C)C(=O)N(C)[C@@H](CC(C)C)C(=O)N[C@@H](C)C(=O)N[C@H](C)C(=O)N(C)[C@@H](CC(C)C)C(=O)N[C@@H](CC(C)C)C(=O)N(C)[C@@H](C(C)C)C(=O)N1C (cyclo(A[dA][NMeL]L[NMeV][MeBmt]T[Sar][NMeL]L[NMeL]))
EC50 [1]: 0.37 µg/mL
bioavailability [2]: 4.3%
IC50 [3]: 0.026 µg/mL (≈ 0.0213 µM)
EC50 [4]: 0.096 µg/mL (≈ 0.0788 µM)
EC50 [5]: 0.096 µg/mL
solubility [6]: 6.5 µg/mL (≈ 5.33 µM)
AUC(0-t) at 24 h [7]: 140 ng·h/mL

C/C=C/C[C@@H](C)[C@@H](O)[C@H]1C(=O)N[C@@H]([C@@H](C)O)C(=O)N(C)[C@H](C)C(=O)N(C)[C@@H](c2ccccc2)C(=O)N[C@@H](CC(C)C)C(=O)N(C)[C@@H](CC(C)C)C(=O)N[C@@H](C)C(=O)N[C@H](C)C(=O)N(C)[C@@H](CC(C)C)C(=O)N[C@@H](CC(C)C)C(=O)N(C)[C@@H](C(C)C)C(=O)N1C (cyclo(A[dA][NMeL]L[NMeV][MeBmt]T[dNMeA][NMePhg]L[NMeL]))
IC50 [3]: 1.35 µg/mL (≈ 1.08 µM)
EC50 [4]: 0.084 µg/mL (≈ 0.0671 µM)

C/C=C/C[C@@H](C)[C@@H](O)[C@H]1C(=O)N[C@@H]([C@@H](C)O)C(=O)N(C)CC(=O)N(C)[C@@H]([C@@H](C)CC)C(=O)N[C@@H](CC(C)C)C(=O)N(C)[C@@H](CC(C)C)C(=O)N[C@@H](C)C(=O)N[C@H](C)C(=O)N(C)[C@@H](CC(C)C)C(=O)N[C@@H](CC(C)C)C(=O)N(C)[C@@H](C(C)C)C(=O)N1C
EC50 [1]: 2 µg/mL
bioavailability [2]: 2.1%
IC50 [3]: 0.77 µg/mL (≈ 0.632 µM)
EC50 [4]: 0.15 µg/mL (≈ 0.123 µM)
EC50 [5]: 0.15 µg/mL
solubility [6]: 0.2 µg/mL (≈ 0.164 µM)
AUC(0-t) at 24 h [7]: 111 ng·h/mL

C/C=C/C[C@@H](C)[C@@H](O)[C@H]1C(=O)N[C@@H]([C@@H](C)O)C(=O)N(C)[C@H](C)C(=O)N(C)[C@@H](CC(C)C)C(=O)N[C@@H](CC(C)C)C(=O)N(C)[C@@H](CC(C)C)C(=O)N[C@@H](C)C(=O)N[C@H](C)C(=O)N(C)[C@@H](CC(C)C)C(=O)N[C@@H](CC(C)C)C(=O)N(C)[C@@H](C(C)C)C(=O)N1C
EC50 [1]: 0.35 µg/mL
bioavailability [2]: 40%
IC50 [3]: 0.07 µg/mL (≈ 0.0568 µM)
EC50 [4]: 0.038 µg/mL (≈ 0.0308 µM)
EC50 [5]: 0.038 µg/mL
AUC(0-t) at 24 h [7]: 4210 ng·h/mL

C/C=C/C[C@@H](C)[C@@H](O)[C@H]1C(=O)N[C@@H]([C@@H](C)O)C(=O)N(C)[C@H](C)C(=O)N(C)[C@@H]([C@@H](C)OC(C)(C)C)C(=O)N[C@@H](CC(C)C)C(=O)N(C)[C@@H](CC(C)C)C(=O)N[C@@H](C)C(=O)N[C@H](C)C(=O)N(C)[C@@H](CC(C)C)C(=O)N[C@@H](CC(C)C)C(=O)N(C)[C@@H](C(C)C)C(=O)N1C
EC50 [1]: 0.11 µg/mL
bioavailability [2]: 74%
IC50 [3]: 1.6 µg/mL (≈ 1.25 µM)
EC50 [5]: 0.03 µg/mL
solubility [6]: < 0.1 µg/mL
AUC(0-t) at 24 h [7]: 9450 ng·h/mL

C/C=C/C[C@@H](C)[C@@H](O)[C@H]1C(=O)N[C@@H]([C@@H](C)O)C(=O)N(C)CC(=O)N(C)[C@@H](C2CCCCC2)C(=O)N[C@@H](CC(C)C)C(=O)N(C)[C@@H](CC(C)C)C(=O)N[C@@H](C)C(=O)N[C@H](C)C(=O)N(C)[C@@H](CC(C)C)C(=O)N[C@@H](CC(C)C)C(=O)N(C)[C@@H](C(C)C)C(=O)N1C
IC50 [3]: 0.41 µg/mL (≈ 0.329 µM)
EC50 [4]: 0.063 µg/mL (≈ 0.0506 µM)

C/C=C/C[C@@H](C)[C@@H](O)[C@H]1C(=O)N[C@@H]([C@@H](C)O)C(=O)N(C)[C@H](C)C(=O)N(C)[C@@H](C2CCCCC2)C(=O)N[C@@H](CC(C)C)C(=O)N(C)[C@@H](CC(C)C)C(=O)N[C@@H](C)C(=O)N[C@H](C)C(=O)N(C)[C@@H](CC(C)C)C(=O)N[C@@H](CC(C)C)C(=O)N(C)[C@@H](C(C)C)C(=O)N1C
IC50 [3]: 0.35 µg/mL (≈ 0.278 µM)
EC50 [4]: 0.042 µg/mL (≈ 0.0334 µM)
